Results from ChEMBL document CHEMBL5291721, “A preclinical secondary pharmacology resource illuminates target-adverse drug reaction associations of marketed drugs” (Nat Commun, 2023).

Experiments:
[1] = target: Sodium-dependent serotonin transporter (Homo sapiens, UniProt P31645)
Adenosine receptor A3 [2] = target: T1, Adenosine receptor A3 (Homo sapiens, UniProt P0DMS8)
T1 sequence (P0DMS8 whole entry): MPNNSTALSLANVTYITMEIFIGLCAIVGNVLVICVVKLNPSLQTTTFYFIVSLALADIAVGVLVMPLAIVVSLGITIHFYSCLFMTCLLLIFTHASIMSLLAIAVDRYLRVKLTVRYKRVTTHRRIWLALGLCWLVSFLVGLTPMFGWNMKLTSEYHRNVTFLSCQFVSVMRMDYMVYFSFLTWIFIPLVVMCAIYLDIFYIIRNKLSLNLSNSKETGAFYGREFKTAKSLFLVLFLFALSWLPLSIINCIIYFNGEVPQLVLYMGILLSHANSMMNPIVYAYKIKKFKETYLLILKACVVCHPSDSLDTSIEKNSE

Progesterone receptor = target: T2, Progesterone receptor (Homo sapiens, UniProt P06401); format: functional
T2 sequence (P06401 whole entry): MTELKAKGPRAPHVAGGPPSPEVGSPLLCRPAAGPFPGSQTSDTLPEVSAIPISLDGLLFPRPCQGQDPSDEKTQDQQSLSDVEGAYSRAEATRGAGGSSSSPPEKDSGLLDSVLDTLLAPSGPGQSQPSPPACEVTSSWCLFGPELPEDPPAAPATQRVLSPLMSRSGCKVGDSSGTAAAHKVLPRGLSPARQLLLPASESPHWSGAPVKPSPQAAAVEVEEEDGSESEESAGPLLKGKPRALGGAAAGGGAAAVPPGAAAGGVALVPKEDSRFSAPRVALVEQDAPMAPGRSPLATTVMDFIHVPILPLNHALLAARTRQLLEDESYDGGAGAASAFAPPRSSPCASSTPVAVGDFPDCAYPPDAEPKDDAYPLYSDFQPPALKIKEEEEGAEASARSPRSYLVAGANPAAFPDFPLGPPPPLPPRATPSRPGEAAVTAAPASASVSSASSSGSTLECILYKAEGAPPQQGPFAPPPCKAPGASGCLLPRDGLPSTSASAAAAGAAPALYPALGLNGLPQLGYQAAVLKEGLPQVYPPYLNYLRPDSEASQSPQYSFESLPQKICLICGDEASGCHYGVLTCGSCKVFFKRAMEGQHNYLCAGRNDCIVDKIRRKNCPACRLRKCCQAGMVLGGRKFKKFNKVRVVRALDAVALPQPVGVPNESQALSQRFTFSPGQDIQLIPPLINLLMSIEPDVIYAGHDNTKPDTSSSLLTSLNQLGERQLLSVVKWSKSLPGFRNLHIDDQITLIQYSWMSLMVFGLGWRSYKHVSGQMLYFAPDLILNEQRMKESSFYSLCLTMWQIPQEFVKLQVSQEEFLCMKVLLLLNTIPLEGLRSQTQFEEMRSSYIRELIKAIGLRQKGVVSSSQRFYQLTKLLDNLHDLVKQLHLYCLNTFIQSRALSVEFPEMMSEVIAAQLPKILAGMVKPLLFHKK

Adenosine receptor A2a = Adenosine receptor A2a (Homo sapiens, UniProt P29274)
Adenosine receptor A3 [3] = target: T1, Adenosine receptor A3; remark: listed apart in the source
[4] = target: Gamma-aminobutyric acid receptor subunit alpha-1 (Rattus norvegicus, UniProt P62813); format: functional
[5] = target: 3',5'-cyclic-AMP phosphodiesterase 4D (Homo sapiens, UniProt Q08499); format: functional
[6] = target: T3, 5-hydroxytryptamine receptor 2C (Homo sapiens, UniProt P28335)
T3 sequence (P28335 whole entry): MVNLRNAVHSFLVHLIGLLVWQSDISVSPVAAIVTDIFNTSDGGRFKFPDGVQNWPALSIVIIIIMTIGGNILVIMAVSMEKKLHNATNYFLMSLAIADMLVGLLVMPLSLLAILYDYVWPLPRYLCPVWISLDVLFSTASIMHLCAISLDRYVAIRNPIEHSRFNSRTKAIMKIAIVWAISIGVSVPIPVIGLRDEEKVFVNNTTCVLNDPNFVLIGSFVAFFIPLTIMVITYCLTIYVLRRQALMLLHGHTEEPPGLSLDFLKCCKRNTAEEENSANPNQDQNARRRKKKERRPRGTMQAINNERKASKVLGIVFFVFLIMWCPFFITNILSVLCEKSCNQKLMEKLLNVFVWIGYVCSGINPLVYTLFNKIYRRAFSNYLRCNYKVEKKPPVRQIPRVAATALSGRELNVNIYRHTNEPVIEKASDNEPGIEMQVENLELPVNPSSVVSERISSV

[7] = target: T4, Equilibrative nucleoside transporter 1 (Homo sapiens, UniProt Q99808)
T4 sequence (Q99808 whole entry): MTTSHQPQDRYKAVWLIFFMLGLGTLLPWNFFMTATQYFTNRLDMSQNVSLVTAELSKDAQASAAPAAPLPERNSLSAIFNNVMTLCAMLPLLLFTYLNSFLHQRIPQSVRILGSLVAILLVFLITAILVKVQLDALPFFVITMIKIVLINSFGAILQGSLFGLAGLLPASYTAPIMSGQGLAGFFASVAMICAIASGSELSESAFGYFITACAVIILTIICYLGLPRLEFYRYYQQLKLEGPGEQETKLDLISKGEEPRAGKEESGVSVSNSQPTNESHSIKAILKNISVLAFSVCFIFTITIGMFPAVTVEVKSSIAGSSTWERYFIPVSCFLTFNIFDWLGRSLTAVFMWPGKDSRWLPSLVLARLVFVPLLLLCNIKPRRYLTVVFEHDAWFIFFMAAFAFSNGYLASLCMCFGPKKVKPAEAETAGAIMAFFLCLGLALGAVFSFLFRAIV

[8] = target: 5-hydroxytryptamine receptor 2B (Homo sapiens, UniProt P41595); format: functional, cell-based
Histamine H2 receptor = Histamine H2 receptor (Homo sapiens, UniProt P25021); format: functional, cell-based
Cannabinoid receptor 1 = Cannabinoid receptor 1 (Homo sapiens, UniProt P21554); format: functional, cell-based
Note: assay procedure not described here.

Sodium-dependent serotonin transporter, sequence (P31645 whole entry): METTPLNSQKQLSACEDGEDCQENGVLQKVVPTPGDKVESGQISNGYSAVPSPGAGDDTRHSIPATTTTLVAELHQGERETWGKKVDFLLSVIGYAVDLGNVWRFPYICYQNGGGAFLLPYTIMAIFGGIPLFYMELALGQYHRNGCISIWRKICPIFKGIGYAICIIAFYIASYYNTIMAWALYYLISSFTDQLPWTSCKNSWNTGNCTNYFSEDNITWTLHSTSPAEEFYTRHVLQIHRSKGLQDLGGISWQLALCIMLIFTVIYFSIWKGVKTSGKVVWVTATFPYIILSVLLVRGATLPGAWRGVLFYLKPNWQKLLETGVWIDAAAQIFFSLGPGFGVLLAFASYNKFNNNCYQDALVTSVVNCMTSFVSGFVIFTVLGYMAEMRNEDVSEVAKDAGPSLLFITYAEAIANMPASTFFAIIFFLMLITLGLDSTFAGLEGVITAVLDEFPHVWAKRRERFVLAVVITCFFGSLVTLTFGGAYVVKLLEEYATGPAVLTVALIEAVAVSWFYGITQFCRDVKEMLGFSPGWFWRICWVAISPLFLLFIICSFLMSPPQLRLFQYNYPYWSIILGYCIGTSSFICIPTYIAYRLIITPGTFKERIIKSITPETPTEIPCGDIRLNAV
Adenosine receptor A2a, sequence (P29274 whole entry): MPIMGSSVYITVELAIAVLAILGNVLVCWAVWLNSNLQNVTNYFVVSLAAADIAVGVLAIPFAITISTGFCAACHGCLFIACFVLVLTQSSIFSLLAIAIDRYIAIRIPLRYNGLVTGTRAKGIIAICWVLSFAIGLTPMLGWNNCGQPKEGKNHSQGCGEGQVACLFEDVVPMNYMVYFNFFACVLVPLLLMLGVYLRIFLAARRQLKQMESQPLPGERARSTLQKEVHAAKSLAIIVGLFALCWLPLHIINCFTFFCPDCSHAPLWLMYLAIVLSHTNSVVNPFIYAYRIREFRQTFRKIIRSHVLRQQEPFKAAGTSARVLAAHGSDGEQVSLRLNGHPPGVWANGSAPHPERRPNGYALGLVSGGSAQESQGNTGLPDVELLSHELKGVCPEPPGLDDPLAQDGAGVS
Gamma-aminobutyric acid receptor subunit alpha-1, sequence (P62813 whole entry): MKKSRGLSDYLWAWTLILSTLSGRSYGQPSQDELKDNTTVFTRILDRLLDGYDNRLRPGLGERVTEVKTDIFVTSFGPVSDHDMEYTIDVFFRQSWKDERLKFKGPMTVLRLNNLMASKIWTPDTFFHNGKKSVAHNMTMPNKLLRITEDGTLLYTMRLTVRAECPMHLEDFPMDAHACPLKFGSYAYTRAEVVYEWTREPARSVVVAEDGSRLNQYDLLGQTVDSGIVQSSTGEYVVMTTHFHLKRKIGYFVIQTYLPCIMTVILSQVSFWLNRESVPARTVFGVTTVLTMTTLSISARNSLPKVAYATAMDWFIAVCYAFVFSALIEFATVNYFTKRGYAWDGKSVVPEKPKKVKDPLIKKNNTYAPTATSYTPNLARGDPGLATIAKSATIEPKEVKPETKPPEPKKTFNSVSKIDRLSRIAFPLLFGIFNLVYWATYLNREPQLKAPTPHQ
5-hydroxytryptamine receptor 2B, sequence (P41595 whole entry): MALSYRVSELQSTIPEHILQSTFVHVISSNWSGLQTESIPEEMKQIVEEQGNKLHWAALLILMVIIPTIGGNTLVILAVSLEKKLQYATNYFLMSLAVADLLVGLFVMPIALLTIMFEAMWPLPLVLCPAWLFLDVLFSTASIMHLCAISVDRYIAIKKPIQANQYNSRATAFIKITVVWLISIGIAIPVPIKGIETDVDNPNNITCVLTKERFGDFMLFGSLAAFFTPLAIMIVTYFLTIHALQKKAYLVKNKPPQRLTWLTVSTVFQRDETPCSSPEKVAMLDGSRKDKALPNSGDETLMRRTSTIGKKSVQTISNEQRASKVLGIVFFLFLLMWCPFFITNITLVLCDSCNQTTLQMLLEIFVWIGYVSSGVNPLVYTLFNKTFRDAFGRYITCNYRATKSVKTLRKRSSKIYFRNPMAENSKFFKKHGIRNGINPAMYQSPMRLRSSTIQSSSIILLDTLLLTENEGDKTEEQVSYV
Histamine H2 receptor, sequence (P25021 whole entry): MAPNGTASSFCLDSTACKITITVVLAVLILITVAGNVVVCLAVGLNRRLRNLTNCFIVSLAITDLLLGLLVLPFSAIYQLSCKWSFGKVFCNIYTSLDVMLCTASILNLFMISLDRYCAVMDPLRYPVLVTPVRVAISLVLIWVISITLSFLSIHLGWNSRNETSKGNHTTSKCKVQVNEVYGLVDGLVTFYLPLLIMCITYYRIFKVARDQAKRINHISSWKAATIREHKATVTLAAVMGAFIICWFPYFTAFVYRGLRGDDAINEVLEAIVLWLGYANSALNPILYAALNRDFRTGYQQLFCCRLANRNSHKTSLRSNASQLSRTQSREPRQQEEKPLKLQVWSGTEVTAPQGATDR
3',5'-cyclic-AMP phosphodiesterase 4D, sequence (Q08499 whole entry): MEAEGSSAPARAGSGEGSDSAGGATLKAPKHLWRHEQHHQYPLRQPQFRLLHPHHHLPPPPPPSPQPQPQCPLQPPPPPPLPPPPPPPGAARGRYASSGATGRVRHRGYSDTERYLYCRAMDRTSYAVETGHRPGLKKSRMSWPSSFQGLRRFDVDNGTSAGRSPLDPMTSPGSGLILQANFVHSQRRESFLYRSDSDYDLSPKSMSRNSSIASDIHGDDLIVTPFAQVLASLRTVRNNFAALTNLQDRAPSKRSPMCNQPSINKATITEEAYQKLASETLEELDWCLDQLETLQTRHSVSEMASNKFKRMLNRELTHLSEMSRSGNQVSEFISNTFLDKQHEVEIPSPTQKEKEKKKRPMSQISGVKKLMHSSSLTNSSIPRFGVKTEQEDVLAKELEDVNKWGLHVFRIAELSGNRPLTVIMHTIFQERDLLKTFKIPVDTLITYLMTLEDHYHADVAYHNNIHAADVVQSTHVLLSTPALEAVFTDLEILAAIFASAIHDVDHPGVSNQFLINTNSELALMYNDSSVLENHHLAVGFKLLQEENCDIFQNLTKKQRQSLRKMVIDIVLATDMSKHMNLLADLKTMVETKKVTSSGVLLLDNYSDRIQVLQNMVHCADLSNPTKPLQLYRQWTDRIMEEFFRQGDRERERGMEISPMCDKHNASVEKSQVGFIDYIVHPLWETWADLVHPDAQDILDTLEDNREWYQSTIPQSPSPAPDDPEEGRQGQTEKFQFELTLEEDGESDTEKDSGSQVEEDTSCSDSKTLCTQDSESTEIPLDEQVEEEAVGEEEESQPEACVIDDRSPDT
Cannabinoid receptor 1, sequence (P21554 whole entry): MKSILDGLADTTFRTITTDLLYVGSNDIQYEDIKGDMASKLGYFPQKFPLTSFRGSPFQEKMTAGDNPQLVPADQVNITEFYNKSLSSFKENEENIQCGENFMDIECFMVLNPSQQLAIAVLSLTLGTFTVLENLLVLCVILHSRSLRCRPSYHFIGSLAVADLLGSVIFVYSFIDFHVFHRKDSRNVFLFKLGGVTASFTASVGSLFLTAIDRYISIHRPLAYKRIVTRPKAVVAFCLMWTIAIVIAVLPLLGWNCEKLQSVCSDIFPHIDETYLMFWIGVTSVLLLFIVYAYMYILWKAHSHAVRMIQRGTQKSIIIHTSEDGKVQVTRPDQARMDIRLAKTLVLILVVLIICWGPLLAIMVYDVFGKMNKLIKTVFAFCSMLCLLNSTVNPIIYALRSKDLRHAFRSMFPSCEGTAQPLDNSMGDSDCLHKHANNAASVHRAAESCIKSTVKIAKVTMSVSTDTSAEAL

| SMILES | AC50 [1] [µM] | AC50 (Adenosine receptor A3 [2]) [µM] | further results |
| --- | --- | --- | --- |
| CC[C@H](C)C[C@H](C)CCCCCCCCC(=O)N[C@H]1C[C@@H](O)[C@@H](NCCN)NC(=O)[C@@H]2[C@@H](O)CCN2C(=O)[C@H]([C@H](O)CCN)NC(=O)[C@H]([C@H](O)[C@@H](O)c2ccc(O)cc2)NC(=O)[C@@H]2C[C@@H](O)CN2C(=O)[C@H]([C@@H](C)O)NC1=O [CASPOFUNGIN] | > 30 | 11.3 | – |
| Cc1ccccc1C(=O)Nc1ccc(C(=O)N2CCCC(N(C)C)c3ccccc32)cc1 (configuration not stated) [MOZAVAPTAN] | 1.26 | > 30 | – |
| CC(=O)O[C@]1(C(C)=O)CC[C@H]2[C@@H]3C=C(C)C4=CC(=O)CC[C@@H]4[C@H]3CC[C@@]21C [NOMEGESTROL ACETATE] | > 30 | – | AC50 (Progesterone receptor): 0.028 µM; AC50 (Adenosine receptor A2a): > 30 µM; AC50 (Adenosine receptor A3 [3]): > 30 µM; AC50 [4]: 2.5 µM; AC50 [5]: 14 µM; AC50 [6]: > 30 µM; AC50 [7]: > 30 µM; AC50 [8]: > 30 µM; AC50 (Histamine H2 receptor): > 30 µM; AC50 (Cannabinoid receptor 1): > 30 µM |
| CN1CCC(=C2c3ccccc3Sc3ccccc32)CC1 [PIMETHIXENE] | 18.3 | 25.9 | – |
| C/C=C/C/C=C/CCC(=O)[C@H]1O[C@H]1C(N)=O [CERULENIN] | > 30 | > 30 | – |
| CC[C@H](c1ccc(O)cc1)[C@@H](CC)c1ccc(O)cc1 [HEXESTROL] | > 30 | 8.47 | – |
| O=C1/C(=C2\Nc3ccc(S(=O)(=O)O)cc3C2=O)Nc2ccc(S(=O)(=O)O)cc21 [INDIGOTINDISULFONATE] | > 30 | 0.995 | – |
| FC(F)(F)c1ccc(CNc2ccc(Cc3c[nH]c4ncc(Cl)cc34)cn2)cn1 [PEXIDARTINIB] | 8 | 3.69 | – |
| [H]/N=C(\N/C(=N/[H])Nc1ccc(Cl)cc1)NC(C)C [PROGUANIL] | 22.8 | > 30 | – |
| CC(C)C[C@H](NC(=O)CNC(=O)c1cc(Cl)ccc1Cl)B(O)O [IXAZOMIB] | > 30 | > 30 | – |
| O=C(O)c1cc(/N=N/c2ccc(O)c(C(=O)O)c2)ccc1O [OLSALAZINE] | > 30 | > 30 | – |
| C=CCN1CC[C@]23CCCC[C@H]2[C@H]1Cc1ccc(O)cc13 [LEVALLORPHAN] | > 30 | > 30 | – |
| CC(C)(O)CNc1nc(Nc2ccnc(C(F)(F)F)c2)nc(-c2cccc(C(F)(F)F)n2)n1 [ENASIDENIB] | > 30 | 0.003 | – |
| CNC(=O)Oc1cccc2ccccc12 [CARBARIL] | > 30 | > 30 | – |
| CC(CN1CC(=O)NC(=O)C1)N1CC(=O)NC(=O)C1 (configuration not stated) [RAZOXANE] | > 30 | > 30 | – |
| N[C@@H](CS)C(=O)O [CYSTEINE] | > 30 | > 30 | – |
| CN1CCCCC1CCN1c2ccccc2Sc2ccc([S+](C)[O-])cc21 (configuration not stated) [MESORIDAZINE] | > 30 | > 30 | – |
| Nc1ccc(C(=O)Oc2ccccc2)c(O)c1 [PHENYL AMINOSALICYLATE] | > 30 | 18.4 | – |
| CCn1cc(C(=O)O)c(=O)c2cc3c(cc21)OCO3 [OXOLINIC ACID] | > 30 | > 30 | – |
| OC[C@H]1O[C@@H](c2ccc(F)c(Cc3cc4ccccc4s3)c2)[C@H](O)[C@@H](O)[C@@H]1O [IPRAGLIFLOZIN] | > 30 | > 30 | – |
| CCOC(=O)C1=C[C@@H](OC(CC)CC)[C@H](NC(C)=O)[C@@H](N)C1 [OSELTAMIVIR] | > 30 | > 30 | – |
| COc1c2ccoc2cc2oc(=O)ccc12 [BERGAPTEN] | > 30 | 23.8 | – |
| OC[C@H]1O[C@@H](c2ccc(Cl)c(Cc3ccc(O[C@H]4CCOC4)cc3)c2)[C@H](O)[C@@H](O)[C@@H]1O [EMPAGLIFLOZIN] | > 30 | > 30 | – |
| CC(C)OC(=O)CCC/C=C\C[C@@H]1[C@@H](/C=C/C(F)(F)COc2ccccc2)[C@H](O)C[C@@H]1O [TAFLUPROST] | > 30 | > 30 | – |
| CC[C@H]1OC(=O)[C@H](C)C(=O)[C@H](C)[C@@H](O[C@@H]2O[C@H](C)C[C@H](N(C)C)[C@H]2O)[C@](C)(OC)C[C@@H](C)C(=O)[C@H](C)[C@H]2N(CCCCn3cnc(-c4cccnc4)c3)C(=O)O[C@]12C [TELITHROMYCIN] | > 30 | > 30 | – |
| N[C@@H](CO)C(=O)O [SERINE] | > 30 | > 30 | – |
| CC(=O)Oc1cc(C(F)(F)F)ccc1C(=O)O [TRIFLUSAL] | > 30 | > 30 | – |
| C[C@@H]1C[C@H]2[C@@H]3CCC4=CC(=O)C=C[C@]4(C)[C@@]3(Cl)[C@@H](O)C[C@]2(C)[C@@]1(OC(=O)c1ccco1)C(=O)CCl [MOMETASONE FUROATE] | > 30 | 1.64 | – |
| Cc1onc(-c2ccccc2)c1C(=O)N[C@@H]1C(=O)N2[C@@H]1SC(C)(C)[C@@H]2C(=O)O [OXACILLIN] | > 30 | > 30 | – |
